Broadly, the IC50 is the midpoint of a concentration-inhibition curve.

The values that follow come from patent US11331314B2, “Amine substituted triazole derivatives and uses thereof” (Bayer Pharma Aktiengesellschaft, priority 2017, dated 2022).

One assay deals with human V1a receptor (Homo sapiens, UniProt P37288). The experiment in a line: Cellular in vitro assay for determining vasopressin receptor activity, V1a receptor cell line (photoprotein luminescence). The class given is cell-based. The note with it: for IC50: CHO cell line transfected with the human V1a receptor, agonist [Arg8]-vasopressin at EC50 concentration, read-out: IC50 hV1a; for ratio IC50 hV2/hV1a: selectivity ratio of the cellular IC50 values. Put shortly:
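CHO K1 cells stably expressing human V1a receptor with aequorin photoprotein, loaded overnight with coelenterazine. Compounds preincubated 10 min at various concentrations, then challenged with [Arg^8]-vasopressin at EC50 concentration. Calcium-driven luminescence read immediately; IC50 values derived.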

A further assay has as its target T1, human V2 receptor (Homo sapiens, UniProt P30518).
T1 construct: expressed in transfected cells; host or cells: CHO K1 (ATCC) expressing firefly luciferase under a CRE-responsive promoter
The experiment in a line: Cellular in vitro assay for determining vasopressin receptor activity, V2 receptor cell line (CRE-luciferase). The class given is cell-based. The note with it: CHO cell line transfected with the human V2 receptor; agonist [Arg8]-vasopressin at EC50 concentration; read-out: IC50 hV2.

Sequence of human V1a receptor (P37288 whole entry): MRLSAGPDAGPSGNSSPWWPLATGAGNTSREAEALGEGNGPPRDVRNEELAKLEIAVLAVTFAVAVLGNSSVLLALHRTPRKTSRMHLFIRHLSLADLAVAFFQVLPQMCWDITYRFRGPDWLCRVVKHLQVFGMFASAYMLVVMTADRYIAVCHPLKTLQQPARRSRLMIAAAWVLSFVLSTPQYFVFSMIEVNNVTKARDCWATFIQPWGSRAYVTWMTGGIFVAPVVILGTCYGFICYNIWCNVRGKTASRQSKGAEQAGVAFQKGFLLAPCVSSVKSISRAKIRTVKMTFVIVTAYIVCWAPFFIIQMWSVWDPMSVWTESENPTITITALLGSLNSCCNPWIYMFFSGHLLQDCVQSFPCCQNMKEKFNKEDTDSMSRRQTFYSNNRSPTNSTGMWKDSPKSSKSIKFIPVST
T1 sequence (P30518 whole entry): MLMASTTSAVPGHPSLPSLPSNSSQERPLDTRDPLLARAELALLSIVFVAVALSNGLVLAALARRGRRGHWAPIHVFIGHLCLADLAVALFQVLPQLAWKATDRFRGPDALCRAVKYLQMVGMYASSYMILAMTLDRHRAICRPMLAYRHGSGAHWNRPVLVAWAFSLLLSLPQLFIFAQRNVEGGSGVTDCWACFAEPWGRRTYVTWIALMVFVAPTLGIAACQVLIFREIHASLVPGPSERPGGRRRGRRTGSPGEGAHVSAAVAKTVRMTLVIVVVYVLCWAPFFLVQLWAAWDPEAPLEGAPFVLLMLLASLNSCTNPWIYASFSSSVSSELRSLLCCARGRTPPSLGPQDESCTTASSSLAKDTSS

Turning to `O=c1n(Cc2nc(N3CCCC3)n(-c3ccccc3Cl)n2)nc(-c2ccc(Cl)cc2)n1C[C@H](O)C(F)(F)F` [Example 87, 5-(4-Chlorophenyl)-2-{[1-(2-chlorophenyl)-5-(pyrrolidin-1-yl)-1H-1,2,4-triazol-3-yl]methyl}-4-[(2S)-3,3,3-trifluoro-2-hydroxypropyl]-2,4-dihydro-3H-1,2,4-triazol-3-one], on human V1a receptor, the half-inhibitory concentration (IC50) amounted to 0.00241 µM and the “ratio IC50 hV2/hV1a” value came to 11.1. Further, the IC50 on human V2 receptor came to 0.0268 µM.
For `O=c1n(Cc2nc(N3CCCC3)n(-c3cccc(F)c3)n2)nc(-c2ccc(Cl)cc2)n1C[C@H](O)C(F)(F)F` [Example 88, 5-(4-Chlorophenyl)-2-{[1-(3-fluorophenyl)-5-(pyrrolidin-1-yl)-1H-1,2,4-triazol-3-yl]methyl}-4-[(2S)-3,3,3-trifluoro-2-hydroxypropyl]-2,4-dihydro-3H-1,2,4-triazol-3-one], in that order: 0.00559 µM, 2.1 and 0.0119 µM.
For `O=C1CN(c2nc(Cn3nc(-c4ccc(Cl)cc4)n(C[C@H](O)C(F)(F)F)c3=O)nn2-c2ccccc2F)CCN1` [Example 89, 4-[3-({3-(4-Chlorophenyl)-5-oxo-4-[(2S)-3,3,3-trifluoro-2-hydroxypropyl]-4,5-dihydro-1H-1,2,4-triazol-1-yl}methyl)-1-(2-fluorophenyl)-1H-1,2,4-triazol-5-yl]piperazin-2-one], in that order: 0.00545 µM, 14.8 and 0.0805 µM.
Taken in the same sequence, the figures for `O=c1n(Cc2nc(N3CCS(=O)(=O)CC3)n(-c3ccccc3F)n2)nc(-c2ccc(Cl)cc2)n1C[C@H](O)C(F)(F)F` [Example 90, 5-(4-Chlorophenyl)-2-{[5-(1,1-dioxidothiomorpholin-4-yl)-1-(2-fluorophenyl)-1H-1,2,4-triazol-3-yl]methyl}-4-[(2S)-3,3,3-trifluoro-2-hydroxypropyl]-2,4-dihydro-3H-1,2,4-triazol-3-one] were 0.0088 µM, 28.1 and 0.248 µM.
Consider `CC(C)(N)CNc1nc(Cn2nc(-c3ccc(Cl)cc3)n(C[C@H](O)C(F)(F)F)c2=O)nn1-c1ccccc1F` [Example 91, 2-({5-[(2-Amino-2-methylpropyl)amino]-1-(2-fluorophenyl)-1H-1,2,4-triazol-3-yl}methyl)-5-(4-chlorophenyl)-4-[(2S)-3,3,3-trifluoro-2-hydroxypropyl]-2,4-dihydro-3H-1,2,4-triazol-3-one], for which, on human V1a receptor, the IC50 was determined as 0.00115 µM and the “ratio IC50 hV2/hV1a” value amounted to 91.7. On human V2 receptor, the IC50 was determined as 0.105 µM.
For `CC(C)(N)CNc1nc(Cn2nc(-c3ccc(Cl)cc3)n(C[C@H](O)C(F)(F)F)c2=O)nn1-c1ncccc1F` [Example 92, 2-({5-[(2-Amino-2-methylpropyl)amino]-1-(3-fluoropyridin-2-yl)-1H-1,2,4-triazol-3-yl}methyl)-5-(4-chlorophenyl)-4-[(2S)-3,3,3-trifluoro-2-hydroxypropyl]-2,4-dihydro-3H-1,2,4-triazol-3-one], the IC50 on human V1a receptor was determined as 0.0415 µM; on human V2 receptor, 3.05 µM. The “ratio IC50 hV2/hV1a” value on human V1a receptor was determined as 73.5.
For `CC(C)(N)CNc1nc(Cn2nc(-c3ccc(Cl)cc3)n(C[C@H](O)C(F)(F)F)c2=O)nn1-c1ccccn1` [Example 93, 2-({5-[(2-Amino-2-methylpropyl)amino]-1-(pyridin-2-yl)-1H-1,2,4-triazol-3-yl}methyl)-5-(4-chlorophenyl)-4-[(2S)-3,3,3-trifluoro-2-hydroxypropyl]-2,4-dihydro-3H-1,2,4-triazol-3-one], in that order: 0.028 µM, 3.15 µM and 112.5.
For the molecule `CC(C)(N)CNc1nc(Cn2nc(-c3ccc(Cl)cc3)n(C[C@H](O)C(F)(F)F)c2=O)nn1-c1ccccc1` [Example 94, 2-({5-[(2-Amino-2-methylpropyl)amino]-1-phenyl-1H-1,2,4-triazol-3-yl}methyl)-5-(4-chlorophenyl)-4-[(2S)-3,3,3-trifluoro-2-hydroxypropyl]-2,4-dihydro-3H-1,2,4-triazol-3-one], at human V1a receptor, the IC50 came to 0.0043 µM and the “ratio IC50 hV2/hV1a” value stood at 22.2. Further, on human V2 receptor, the IC50 amounted to 0.0955 µM.
For `CC(C)(N)CNc1nc(Cn2nc(-c3ccc(Cl)cc3)n(C[C@H](O)C(F)(F)F)c2=O)nn1-c1ncccc1Cl` [Example 95, 2-({5-[(2-Amino-2-methylpropyl)amino]-1-(3-chloropyridin-2-yl)-1H-1,2,4-triazol-3-yl}methyl)-5-(4-chlorophenyl)-4-[(2S)-3,3,3-trifluoro-2-hydroxypropyl]-2,4-dihydro-3H-1,2,4-triazol-3-one], in that order: 0.00086 µM, 845.9 and 0.727 µM.
Regarding `O=c1n(Cc2nc(N3CCS(=O)(=O)CC3)n(-c3ncccc3Cl)n2)nc(-c2ccc(Cl)cc2)n1C[C@H](O)C(F)(F)F` [Example 96, 5-(4-Chlorophenyl)-2-{[1-(3-chloropyridin-2-yl)-5-(1,1-dioxidothiomorpholin-4-yl)-1H-1,2,4-triazol-3-yl]methyl}-4-[(2S)-3,3,3-trifluoro-2-hydroxypropyl]-2,4-dihydro-3H-1,2,4-triazol-3-one], on human V1a receptor, the IC50 was 0.001 µM and the “ratio IC50 hV2/hV1a” value amounted to 407.5. The IC50 on human V2 receptor was determined as 0.408 µM.
For `O=C1CN(c2nc(Cn3nc(-c4ccc(Cl)cc4)n(C[C@H](O)C(F)(F)F)c3=O)nn2-c2ncccc2Cl)CCN1` [Example 97, 4-[3-({3-(4-Chlorophenyl)-5-oxo-4-[(2S)-3,3,3-trifluoro-2-hydroxypropyl]-4,5-dihydro-1H-1,2,4-triazol-1-yl}methyl)-1-(3-chloropyridin-2-yl)-1H-1,2,4-triazol-5-yl]piperazin-2-one], in that order: 0.00056 µM, 176.9 and 0.0995 µM.
For `CC(C)(O)CNc1nc(Cn2nc(-c3ccc(Cl)cc3)n(C[C@H](O)C(F)(F)F)c2=O)nn1-c1ncccc1Cl` [Example 98, 5-(4-Chlorophenyl)-2-({1-(3-chloropyridin-2-yl)-5-[(2-hydroxy-2-methylpropyl)amino]-1H-1,2,4-triazol-3-yl}methyl)-4-[(2S)-3,3,3-trifluoro-2-hydroxypropyl]-2,4-dihydro-3H-1,2,4-triazol-3-one], the values for the IC50 on human V1a receptor and on human V2 receptor were 0.0019 µM and 0.145 µM, respectively.
As to `O=c1n(Cc2nc(N3CCS(=O)(=O)CC3)n(CCC(F)(F)F)n2)nc(-c2ccc(Cl)cc2)n1C[C@H](O)C(F)(F)F` [Example 100, 5-(4-Chlorophenyl)-2-{[5-(1,1-dioxidothiomorpholin-4-yl)-1-(3,3,3-trifluoropropyl)-1H-1,2,4-triazol-3-yl]methyl}-4-[(2S)-3,3,3-trifluoro-2-hydroxypropyl]-2,4-dihydro-3H-1,2,4-triazol-3-one], at human V1a receptor, the IC50 amounted to 0.33 µM and the “ratio IC50 hV2/hV1a” value came out at 11.5. Also, the IC50 on human V2 receptor turned out to be 3.8 µM.
For `O=C1CC[C@H](CNc2nc(Cn3nc(-c4ccc(Cl)cc4)n(C[C@H](O)C(F)(F)F)c3=O)nn2CCC(F)(F)F)N1` [Example 101, 5-(4-Chlorophenyl)-2-{[5-({[(2R)-5-oxopyrrolidin-2-yl]methyl}amino)-1-(3,3,3-trifluoropropyl)-1H-1,2,4-triazol-3-yl]methyl}-4-[(2S)-3,3,3-trifluoro-2-hydroxypropyl]-2,4-dihydro-3H-1,2,4-triazol-3-one], in that order: 0.0295 µM, 17.3 and 0.51 µM.
As to `CC(C)(CNc1nc(Cn2nc(-c3ccc(Cl)cc3)n(C[C@H](O)C(F)(F)F)c2=O)nn1CCC(F)(F)F)NS(C)(=O)=O` [Example 102, N-(1-{[3-({3-(4-Chlorophenyl)-5-oxo-4-[(2S)-3,3,3-trifluoro-2-hydroxypropyl]-4,5-dihydro-1H-1,2,4-triazol-1-yl}methyl)-1-(3,3,3-trifluoropropyl)-1H-1,2,4-triazol-5-yl]amino}-2-methylpropan-2-yl)methanesulfonamide], at human V1a receptor, the IC50 came to 0.0039 µM and the “ratio IC50 hV2/hV1a” value is 31.5. For the same molecule, on human V2 receptor, the IC50 was found to be 0.123 µM.
In the case of `O=C1CC[C@@H](CNc2nc(Cn3nc(-c4ccc(Cl)cc4)n(C[C@H](O)C(F)(F)F)c3=O)nn2CCC(F)(F)F)N1` [Example 109, 5-(4-Chlorophenyl)-2-{[5-({[(2S)-5-oxopyrrolidin-2-yl]methyl}amino)-1-(3,3,3-trifluoropropyl)-1H-1,2,4-triazol-3-yl]methyl}-4-[(2S)-3,3,3-trifluoro-2-hydroxypropyl]-2,4-dihydro-3H-1,2,4-triazol-3-one], at human V1a receptor, the IC50 worked out at 0.0094 µM and the “ratio IC50 hV2/hV1a” value came to 41.0. The IC50 at human V2 receptor was 0.385 µM.
As for `CC(C)(O)CNc1nc(Cn2nc(-c3ccc(Cl)cc3)n(C[C@H](O)C(F)(F)F)c2=O)nn1CCC(F)(F)F` [Example 110, 5-(4-Chlorophenyl)-2-({5-[(2-hydroxy-2-methylpropyl)amino]-1-(3,3,3-trifluoropropyl)-1H-1,2,4-triazol-3-yl}methyl)-4-[(2S)-3,3,3-trifluoro-2-hydroxypropyl]-2,4-dihydro-3H-1,2,4-triazol-3-one], the figures for the IC50 at human V1a receptor and at human V2 receptor were 0.0014 µM and 0.17 µM, respectively. Moreover, the “ratio IC50 hV2/hV1a” value at human V1a receptor is 121.4.
`CC(C)(N)CNc1nc(Cn2nc(-c3ccc(Cl)cc3)n(C[C@H](O)C(F)(F)F)c2=O)nn1CCC(F)(F)F` [Example 111, 2-({5-[(2-Amino-2-methylpropyl)amino]-1-(3,3,3-trifluoropropyl)-1H-1,2,4-triazol-3-yl}methyl)-5-(4-chlorophenyl)-4-[(2S)-3,3,3-trifluoro-2-hydroxypropyl]-2,4-dihydro-3H-1,2,4-triazol-3-one]: the IC50 at human V1a receptor was found to be 0.0185 µM; on human V2 receptor, 2.75 µM. The “ratio IC50 hV2/hV1a” value on human V1a receptor came out at 148.7.
